Assay results as given in patent US20240415819A1, “MACROCYCLIC COMPOUNDS AS PROTEASOME SUBUNIT BETA TYPE-5 INHIBITORS” (Lead Discovery Center GmbH, priority 2021, published 2024).

How the values were obtained:
HT-29 cells = assay: CellTiter-Glo luminescent cell viability assay with HT-29 cells (72h incubation); format: cell-based, human; conditions: Homo sapiens, HT-29, HT29 cells, read-out: CTG HT29
Outline: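 400 cells per well in DMEM/10% FCS were dosed after 24 h and kept 72 h at 37 °C, 5% CO2. ATP-based luminescence (CellTiter-Glo) normalized to DMSO and 10 μM staurosporine controls; IC50 by dose-response fit.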

[1] = biological target: T1, β5 subunit of the human constitutive proteasome (CPS) (Homo sapiens, UniProt P28074); assay: β5 inhibition assay, human constitutive proteasome (Suc-LLVY-AMC); format: biochemical; conditions: IC50 class, Suc-LLVY-AMC substrate
T1 construct: purchased Boston Biochem E-360
Experimental: The enzymatic activity of the β5 subunit of the human constitutive proteasome (CPS) is analyzed. In another assay, which differs from the assay of the human constitutive proteasome only in using the human immunoproteasome (IPS) the enzymatic activity of the β5 subunit of the human immunoproteasome (IPS) is analyzed. […] Inhibition is indicated as IC50 [nM] (“-”=not measured).

[2] = biological target: T2, β5 subunit of the human immunoproteasome (IPS) (Homo sapiens, UniProt P28062); assay: β5 inhibition assay, human immunoproteasome (Suc-LLVY-AMC); format: biochemical; conditions: IC50 class, Suc-LLVY-AMC substrate
T2 construct: purchased Boston Biochem E-370
Outline: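 Human immunoproteasome (1 nM final) was preincubated 10 min at RT with compound in 100 mM HEPES pH 7.5, 50 mM NaCl, 0.02% SDS, 1 mM DTT. Suc-LLVY-AMC (22.6 μM final) was then added for 4 h at RT in the dark. After stopping with 1 μM bortezomib, AMC fluorescence was read (ex 355/em 460 nm).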

SMILES | IC50 (HT-29 cells) [nM] | IC50 [1] [nM] | IC50 [2] [nM]
Cc1ccc2cc1CNC(=O)[C@H](CCc1ccccc1)NC(=O)[C@@H](NC(=O)CC1=NN(c3ccccc3)C(=O)C1)CC(=O)N1CCCC(CCO2)C1 (stereo partly drawn) [Compound 334, N-((9S,12S)-5^4-methyl-8,11,14-trioxo-9-phenethyl-4-oxa-7,10-diaza-1(3,1)-piperidina-5(1,3)-benzenacyclotetradecaphane-12-yl)-2-(5-oxo-1-phenyl-4,5-dihydro-1H-pyrazol-3-yl)acetamide] | < 100 | < 100 | < 100
Cc1ccc2cc1CNC(=O)[C@H](CCc1ccccc1)NC(=O)[C@@H](NC(=O)OCc1ccccc1)CCCC(=O)N1CCCC3(CC(C3)O2)C1 [Compound 283, benzyl ((7S,10S)-34-methyl-6,9,14-trioxo-7-phenethyl-2-oxa-5,8-diaza-15(3,1)-piperidina-3(1,3)-benzena-1(1,3)-cyclobutanapentadecaphane-10-yl)carbamate] | 100 to 500 | 500 to 1000 | < 100
CC(=O)N[C@H]1CCC(=O)N2CC3CC(Oc4ccc(C)c(c4)CNC(=O)[C@H](CCc4ccccc4)NC1=O)C3C2 (stereo partly drawn) [Compound 299, N-(3^4-methyl-6,9,13-trioxo-7-phenethyl-2-oxa-13,5,8-triaza-1(6,3)-bicyclo[3.2.0]heptana-3(1,3)-benzenacyclotridecaphane-10-yl)acetamide] | 100 to 500 | > 5000 | 500 to 1000
Cc1ccc2cc1CNC(=O)[C@H](CCc1ccccc1)NC(=O)[C@@H](NC(=O)OCc1ccccc1)CCC(=O)N1CCC(CO2)C1 (stereo partly drawn) [Compound 349, benzyl ((8S,11S)-4^4-methyl-7,10,14-trioxo-8-phenethyl-3-oxa-6,9-diaza-1(3,1)-pyrrolidina-4(1,3)-benzenacyclotetradecaphane-11-yl)carbamate] | 100 to 500 | < 100 | < 100
COC(C(=O)N[C@H]1CC(=O)N2CCCC(CCOc3ccc(C)c(c3)CNC(=O)[C@H](CCc3ccccc3)NC1=O)C2)c1ccc(N)cc1 (stereo partly drawn) [Compound 326, 2-(4-aminophenyl)-2-methoxy-N-((9S,12S)-5^4-methyl-8,11,14-trioxo-9-phenethyl-4-oxa-7,10-diaza-1(3,1)-piperidina-5(1,3)-benzenacyclotetradecaphane-12-yl)acetamide] | < 100 | < 100 | < 100
Cc1ccc2cc1CNC(=O)C(CCc1ccccc1)NC(=O)[C@@H](NC(=O)OCc1ccccc1)CC(=O)N1CCCC(CCO2)C1 (stereo partly drawn) [Compound 503, benzyl ((12S)-9-phenethyl-5^4-methyl-8,11,14-trioxo-4-oxa-7,10-diaza-1(3,1)-piperidina-5(1,3)-benzenacyclotetradecaphane-12-yl)carbamate] | < 100 | < 100 | < 100
Cc1ccc2cc1CNC(=O)C(CCc1ccc(C3(C)COC3)cc1)NC(=O)[C@@H](NC(=O)OCc1ccccc1)CC(=O)N1CCCC(CCO2)C1 (stereo partly drawn) [Compound 510, benzyl ((12S)-5^4-methyl-9-(4-(3-methyloxetan-3-yl)phenethyl)-8,11,14-trioxo-4-oxa-7,10-diaza-1(3,1)-piperidina-5(1,3)-benzenacyclotetradecaphane-12-yl)carbamate] | < 100 | < 100 | < 100
Cc1ccc2cc1CNC(=O)[C@H](CCc1ccccc1)NC(=O)[C@@H](NC(=O)c1ccc3cc(N)ccc3c1)CC(=O)N1CCCC(CCO2)C1 (stereo partly drawn) [Compound 339, 6-amino-N-((9S,12S)-5^4-methyl-8,11,14-trioxo-9-phenethyl-4-oxa-7,10-diaza-1(3,1)-piperidina-5(1,3)-benzenacyclotetradecaphane-12-yl)-2-naphthamide] | < 100 | < 100 | < 100

Now from value to molecule:

IC50 (HT-29 cells) [nM] | IC50 [1] [nM] | IC50 [2] [nM] | SMILES
< 100 | < 100 | < 100 | Cc1ccc2cc1CNC(=O)[C@H](CCc1ccccc1)NC(=O)[C@@H](NC(=O)Cc1nnc(N)s1)CC(=O)N1CCCC(CCO2)C1 (stereo partly drawn) [Compound 310, 2-(5-amino-1,3,4-thiadiazol-2-yl)-N-((9S,12S)-54-methyl-8,11,14-trioxo-9-phenethyl-4-oxa-7,10-diaza-1(3,1)-piperidina-5(1,3)-benzenacyclotetradecaphane-12-yl)acetamide]
< 100 | < 100 | < 100 | Cc1n[nH]c(CC(=O)N[C@H]2CC(=O)N3CCCC(CCOc4ccc(C)c(c4)CNC(=O)[C@H](CCc4ccccc4)NC2=O)C3)n1 (stereo partly drawn) [Compound 332, 2-(3-methyl-1H-1,2,4-triazol-5-yl)-N-((9S,12S)-5^4-methyl-8,11,14-trioxo-9-phenethyl-4-oxa-7,10-diaza-1(3,1)-piperidina-5(1,3)-benzenacyclotetradecaphane-12-yl)acetamide]
100 to 500 | < 100 | < 100 | CC(=O)N[C@H]1CC(=O)N2CCCC(CCOc3ccc(C)c(c3)CNC(=O)C(c3cn[nH]c3)NC1=O)C2 (stereo partly drawn) [Compound 562, N-((12S)-5^4-methyl-8,11,14-trioxo-9-(1H-pyrazol-4-yl)-4-oxa-7,10-diaza-1(3,1)-piperidina-5(1,3)-benzenacyclotetradecaphane-12-yl)acetamide]
1000 to 5000 | 1000 to 5000 | < 100 | Cc1cc2cc(c1C)CNC(=O)C(c1cnn(C)c1)NC(=O)CCC(=O)N1CCCC(CCO2)C1 (stereo not drawn) [Compound 355, 5^4,5^5-dimethyl-9-(1-methyl-1H-pyrazol-4-yl)-4-oxa-7,10-diaza-1(3,1)-piperidina-5(1,3)-benzenacyclotetradecaphane-8,11,14-trione]
< 100 | < 100 | < 100 | Cc1ccc2cc1CNC(=O)[C@H](CCc1ccccc1)NC(=O)[C@@H](NC(=O)C(C)(C)C)CC(=O)N1CCCC(CCO2)C1 (stereo partly drawn) [Compound 27, N-((9S,12S)-5^4-methyl-8,11,14-trioxo-9-phenethyl-4-oxa-7,10-diaza-1(3,1)-piperidina-5(1,3)-benzenacyclotetradecaphane-12-yl)pivalamide]
< 100 | < 100 | < 100 | CC(=O)N[C@H]1CC(=O)N2CCCC(CCOc3ccc(C)c(c3)CNC(=O)C(c3cc(C)n(C)n3)NC1=O)C2 (stereo partly drawn) [Compound 561, N-((12S)-9-(1,5-dimethyl-1H-pyrazol-3-yl)-5^4-methyl-8,11,14-trioxo-4-oxa-7,10-diaza-1(3,1)-piperidina-5(1,3)-benzenacyclotetradecaphane-12-yl)acetamide]
100 to 500 | < 100 | < 100 | CC(=O)N[C@H]1CC(=O)N2CCCC(CCOc3ccc(C)c(c3)CNC(=O)C(c3cn(C)cn3)NC1=O)C2 (stereo partly drawn) [Compound 557, N-((12S)-5^4-methyl-9-(1-methyl-1H-imidazol-4-yl)-8,11,14-trioxo-4-oxa-7,10-diaza-1(3,1)-piperidina-5(1,3)-benzenacyclotetradecaphane-12-yl)acetamide]
< 100 | < 100 | < 100 | CC(=O)N[C@H]1CC(=O)N2CCCC(CCOc3ccc(C)c(c3)CNC(=O)C(c3cnn(-c4ccccc4)c3)NC1=O)C2 (stereo partly drawn) [Compound 559, N-((12S)-5^4-methyl-8,11,14-trioxo-9-(1-phenyl-1H-pyrazol-4-yl)-4-oxa-7,10-diaza-1(3,1)-piperidina-5(1,3)-benzenacyclotetradecaphane-12-yl)acetamide]
500 to 1000 | 500 to 1000 | < 100 | Cc1ccc2cc1CNC(=O)C(c1cnn(C)c1)NC(=O)CCCCC(=O)N1CCCC(CCO2)C1 (stereo not drawn) [Compound 356, 5^4-methyl-9-(1-methyl-1H-pyrazol-4-yl)-4-oxa-7,10-diaza-1(3,1)-piperidina-5(1,3)-benzenacyclohexadecaphane-8,11,16-trione]
